Key:
[1] = tested on: Haemonchus contortus L3; assay: microbe, parasite or virus in culture; assay type: cell-based; details: Haemonchus contortus, 96 h, read-out: HcL3 Minimal Effective Concentration (MEC)
[2] = tested on: D. immitis microfilariae; assay: Dirofilaria immitis, microfilariae (DiMF) in vitro motility assay; assay type: cell-based; details: Dirofilaria immitis, 72 h, read-out: DiMF minimally effective dose (MEC)

| SMILES | minimal effective concentration [1] | minimal effective concentration [2] |
| --- | --- | --- |
| Cc1ccc2c(c1)c1c(n2C(=O)NCc2ccnc(Cl)c2)CCN(C/C=C/c2ccc(Cl)cc2)C1 [Example 431, (E)-2-(3-(4-chlorophenyl)allyl)-N-((2-chloropyridin-4-yl)methyl)-8-methyl-1,2,3,4-tetrahydro-5H-pyrido[4,3-b]indole-5-carboxamide] | 1 µM | 3.3 µM |
| O=C(NCc1ccnc(Cl)c1)n1c2c(c3ccc(Br)cc31)CN(C/C=C/c1ccc(Cl)cc1)CC2 [Example 443, (E)-7-bromo-2-(3-(4-chlorophenyl)allyl)-N-((2-chloropyridin-4-yl)methyl)-1,2,3,4-tetrahydro-5H-pyrido[4,3-b]indole-5-carboxamide] | 0.5 µM | 3.3 µM |
| N#Cc1ccc(/C=C/CN2CCc3c(c4ccc(OC(F)(F)F)cc4n3C(=O)NCc3ccnc(Cl)c3)C2)cc1F [Example 345, (E)-N-((2-chloropyridin-4-yl)methyl)-2-(3-(4-cyano-3-fluorophenyl)allyl)-7-(trifluoromethoxy)-1,2,3,4-tetrahydro-5H-pyrido[4,3-b]indole-5-carboxamide] | 0.5 µM | 18.2 µM |
| O=C(NCc1ccnc(Cl)c1)n1c2c(c3cccc(Cl)c31)CN(C/C=C/c1ccc(OC(F)(F)F)cc1)CC2 [Example 271, (E)-6-chloro-N-((2-chloropyridin-4-yl)methyl)-2-(3-(4-(trifluoromethoxy)-phenyl)allyl)-1,2,3,4-tetrahydro-5H-pyrido[4,3-b]indole-5-carboxamide] | > 100 µM | 5.7 µM |
| O=C(NCc1ccnc(F)c1)n1c2c(c3cc(OC(F)(F)F)ccc31)CN(C/C=C/c1ccc(Cl)cc1)CC2 [Example 408, (E)-2-(3-(4-chlorophenyl)allyl)-N-((2-fluoropyridin-4-yl)methyl)-8-(trifluoromethoxy)-1,2,3,4-tetrahydro-5H-pyrido[4,3-b]indole-5-carboxamide] | 1 µM | 10 µM |
| N#Cc1ccc(/C=C/CN2CCc3c(c4cc(Cl)c(Cl)cc4n3C(=O)NCc3ccnc(Cl)c3)C2)cc1F [Example 275, (E)-7,8-dichloro-N-((2-chloropyridin-4-yl)methyl)-2-(3-(4-cyano-3-fluorophenyl)allyl)-1,2,3,4-tetrahydro-5H-pyrido[4,3-b]indole-5-carboxamide] | 0.3 µM | > 100 µM |
| N#Cc1ccc2c3c(n(C(=O)NCc4ccnc(C(F)(F)F)c4)c2c1)CCN(C/C=C/c1ccc(Cl)c(F)c1)C3 [Example 60, (E)-2-(3-(4-chloro-3-fluorophenyl)allyl)-7-cyano-N-((2-(trifluoromethyl)pyridin-4-yl)methyl)-1,2,3,4-tetrahydro-5H-pyrido[4,3-b]indole-5-carboxamide] | 4.4 µM | 13.5 µM |
| N#Cc1ccc2c3c(n(C(=O)NCc4ccnc(Cl)c4)c2c1)CCN(C/C=C/c1ccc(Cl)cc1)C3 [Example 34, (E)-2-(3-(4-chlorophenyl)allyl)-N-((2-chloropyridin-4-yl)methyl)-7-cyano-1,2,3,4-tetrahydro-5H-pyrido[4,3-b]indole-5-carboxamide] | 3.3 µM | 3.3 µM |
| O=C(NCc1ccnc(Cl)c1)n1c2c(c3cc(C(F)(F)F)ccc31)CN(C/C=C/c1ccc(F)cc1)CC2 [Example 334, (E)-N-((2-chloropyridin-4-yl)methyl)-2-(3-(4-fluorophenyl)allyl)-8-(trifluoromethyl)-1,2,3,4-tetrahydro-5H-pyrido[4,3-b]indole-5-carboxamide] | 1 µM | 10 µM |
| COc1cc(CNC(=O)n2c3c(c4cc(C#N)ccc42)CN(C/C=C/c2ccc(Cl)c(Cl)c2)CC3)ccn1 [Example 69, (E)-8-cyano-2-(3-(3,4-dichlorophenyl)allyl)-N-((2-methoxypyridin-4-yl)methyl)-1,2,3,4-tetrahydro-5H-pyrido[4,3-b]indole-5-carboxamide] | 0.02 µM | 0.03 µM |
| O=C(NCc1ccnc(F)c1)n1c2c(c3cc(Cl)ccc31)CN(C/C=C/c1ccc(Cl)c(Cl)c1)CC2 [Example 261, (E)-8-chloro-2-(3-(3,4-dichlorophenyl)allyl)-N-((2-fluoropyridin-4-yl)methyl)-1,2,3,4-tetrahydro-5H-pyrido[4,3-b]indole-5-carboxamide] | 1 µM | 10 µM |
| N#Cc1ccc2c3c(n(C(=O)NCc4ccnc(F)c4)c2c1)CCN(C/C=C/c1cc(F)cc(OC(F)(F)F)c1)C3 [Example 54, (E)-7-cyano-2-(3-(3-fluoro-5-(trifluoromethoxy)phenyl)allyl)-N-((2-fluoro-pyridin-4-yl)methyl)-1,2,3,4-tetrahydro-5H-pyrido[4,3-b]indole-5-carboxamide] | > 100 µM | 10 µM |
| O=C(NCc1ccnc(F)c1)n1c2c(c3cc(Br)ccc31)CN(C/C=C/c1ccc(Cl)cc1)CC2 [Example 192, (E)-8-bromo-2-(3-(4-chlorophenyl)allyl)-N-((2-fluoropyridin-4-yl)methyl)-1,2,3,4-tetrahydro-5H-pyrido[4,3-b]indole-5-carboxamide] | 0.7 µM | 11.5 µM |
| O=C(NCc1ccnc(Cl)c1)n1c2c(c3ccc(OC(F)(F)F)cc31)CN(C/C=C/c1ccc(Cl)cc1Cl)CC2 [Example 337, (E)-N-((2-chloropyridin-4-yl)methyl)-2-(3-(2,4-dichlorophenyl)allyl)-7-(trifluoromethoxy)-1,2,3,4-tetrahydro-5H-pyrido[4,3-b]indole-5-carboxamide] | 1 µM | 18.2 µM |
| Cc1cc2c3c(n(C(=O)NCc4ccnc(Cl)c4)c2cc1C#N)CCN(C/C=C/c1ccc(Cl)cc1)C3 [Example 176, (E)-2-(3-(4-chlorophenyl)allyl)-N-((2-chloropyridin-4-yl)methyl)-7-cyano-8-methyl-1,2,3,4-tetrahydro-5H-pyrido[4,3-b]indole-5-carboxamide] | 0.2 µM | 3.3 µM |
| O=C(NCc1ccnc(Cl)c1)n1c2c(c3c(F)cc(C(F)(F)F)cc31)CN(C/C=C/c1ccc(F)cc1)CC2 [Example 325, (E)-N-((2-chloropyridin-4-yl)methyl)-9-fluoro-2-(3-(4-fluorophenyl)allyl)-7-(trifluoromethyl)-1,2,3,4-tetrahydro-5H-pyrido[4,3-b]indole-5-carboxamide] | 3.3 µM | 7.6 µM |
| Cc1ccc2c3c(n(C(=O)NCc4ccnc(Cl)c4)c2c1)CCN(C/C=C/c1ccc(Cl)cc1)C3 [Example 146, (E)-2-(3-(4-chlorophenyl)allyl)-N-((2-chloropyridin-4-yl)methyl)-7-methyl-1,2,3,4-tetrahydro-5H-pyrido[4,3-b]indole-5-carboxamide] | 0.4 µM | 10 µM |
| O=C(NCc1ccnc(Cl)c1)n1c2c(c3c(OC(F)(F)F)cccc31)CN(C/C=C/c1ccc(F)cc1)CC2 [Example 357, (E)-N-((2-chloropyridin-4-yl)methyl)-2-(3-(4-fluorophenyl)allyl)-9-(trifluoromethoxy)-1,2,3,4-tetrahydro-5H-pyrido[4,3-b]indole-5-carboxamide] | 10 µM | 3.3 µM |
| N#Cc1ccc2c3c(n(C(=O)NCc4ccnc(Cl)c4)c2c1)CCN(C/C=C/c1ccncc1)C3 [Example 37, (E)-N-((2-chloropyridin-4-yl)methyl)-7-cyano-2-(3-(pyridin-4-yl)allyl)-1,2,3,4-tetrahydro-5H-pyrido[4,3-b]indole-5-carboxamide] | > 100 µM | 33 µM |
| O=C(NCc1ccnc(F)c1)n1c2c(c3c(OC(F)(F)F)cccc31)CN(C/C=C/c1ccc(Cl)cc1)CC2 [Example 379a, (E)-2-(3-(4-chlorophenyl)allyl)-N-((2-fluoropyridin-4-yl)methyl)-9-(trifluoromethoxy)-1,2,3,4-tetrahydro-5H-pyrido[4,3-b]indole-5-carboxamide] | > 100 µM | 3.3 µM |
| N#Cc1ccc2c3c(n(C(=O)NCc4ccnc(F)c4)c2c1)CCN(C/C=C/c1ccc(Cl)cc1F)C3 [Example 52, (E)-2-(3-(4-chloro-2-fluorophenyl)allyl)-7-cyano-N-((2-fluoropyridin-4-yl)methyl)-1,2,3,4-tetrahydro-5H-pyrido[4,3-b]indole-5-carboxamide] | 5.7 µM | 10 µM |
| N#Cc1ccc(/C=C/CN2CCc3c(c4c(Br)cccc4n3C(=O)NCc3ccnc(Cl)c3)C2)cc1 [Example 442, (E)-9-bromo-N-((2-chloropyridin-4-yl)methyl)-2-(3-(4-cyanophenyl)allyl)-1,2,3,4-tetrahydro-5H-pyrido[4,3-b]indole-5-carboxamide] | 10 µM | 10 µM |
| N#Cc1cc2c3c(n(C(=O)NCc4ccnc(Cl)c4)c2cc1C(F)(F)F)CCN(C/C=C/c1ccc(Cl)cc1)C3 [Example 171, (E)-2-(3-(4-chlorophenyl)allyl)-N-((2-chloropyridin-4-yl)methyl)-8-cyano-7-(trifluoromethyl)-1,2,3,4-tetrahydro-5H-pyrido[4,3-b]indole-5-carboxamide] | 0.5 µM | 10 µM |
| N#Cc1ccc2c3c(n(C(=O)NCc4ccnc(C5CC5)c4)c2c1)CCN(C/C=C/c1ccc(Cl)c(F)c1)C3 [Example 515, (E)-2-(3-(4-chloro-3-fluorophenyl)allyl)-7-cyano-N-((2-cyclopropylpyridin-4-yl)methyl)-1,2,3,4-tetrahydro-5H-pyrido[4,3-b]indole-5-carboxamide] | 1.8 µM | 13.5 µM |
| N#Cc1cc2c(cc1F)c1c(n2C(=O)NCc2ccnc(F)c2)CCN(C/C=C/c2ccc(Cl)cc2)C1 [Example 174, (E)-2-(3-(4-chlorophenyl)allyl)-7-cyano-8-fluoro-N-((2-fluoropyridin-4-yl)methyl)-1,2,3,4-tetrahydro-5H-pyrido[4,3-b]indole-5-carboxamide] | 57.4 µM | > 100 µM |
